Test results taken from patent publication US10681909B2, “Herbicidal triazoles” (FMC Corporation, priority 2014, dated 2020).

Tests used:
barley, winter = experiment: Test D postemergence; assay type: in vivo, Hordeum vulgare; details: scale 0 to 100
Source text: (§1) Seeds of plant species selected from bluegrass (annual bluegrass, Poa annua), blackgrass (Alopecurus myosuroides), canarygrass (Phalaris minor), chickweed (common chickweed, Stellaria media), galium (catchweed bedstraw, Galium aparine), bromegrass, down (downy bromegrass, Bromus tectorum), Russian thistle (Salsola kali), field poppy (Papaver rhoeas), field violet (Viola arvensis), foxtail, green (green foxtail, Setaria viridis), deadnettle (henbit deadnettle, Lamium amplexicaule), ryegrass, Ital. (Italian ryegrass, Lolium multiflorum), kochia (Kochia scoparia), lambsquarters (Chenopodium album), oilseed rape (Brassica napus), pigweed (Amaranthus retroflexus), chamomile (scentless chamomile, Matricaria inodora), speedwell (bird's-eye speedwell, Veronica persica), barley, spring (spring barley, Hordeum vulgare), wheat, spring (spring wheat, Triticum aestivum), buckwheat, wild (wild buckwheat, Polygonum convolvulus), wild mustard (Sinapis arvensis), oat, wild (wild oat, Avena fatua), radish, wild (wild radish, Raphanus raphanistrum), […]), barley, winter (winter barley, Hordeum vulgare), and wheat, winter (winter wheat, Triticum aestivum) were planted into a silt loam soil and treated preemergence with test chemicals formulated in a non-phytotoxic solvent mixture which included a surfactant. At the same time, these species were planted in pots containing Sunshine Redi-Earth® planting medium comprising spaghnum peat moss, vermiculite, starter nutrients and dolomitic limestone and treated with postemergence applications of the test chemicals formulated in the same manner. Plants ranged in height from 2 to 18 cm (1- to 4-leaf stage). Treated plants and controls were maintained in a controlled growth environment for 14 to 21 d after which time all species were compared to controls and visually evaluated. […] A dash (-) response means no test result.

barley, spring = experiment: Test D postemergence; assay type: in vivo, Hordeum vulgare; details: scale 0 to 100
Source text: as §1

wheat (winter wheat) = experiment: Test C preemergence; assay type: in vivo, Triticum aestivum; details: for Wheat plant response rating (0 to 100): Preemergence, visual rating after 13 to 15 d; for Plant response rating (scale of 0 to 100 where 0 is no effect and 100 is complete control): Wheat, preemergence, 250 g ai/ha
Source text: (§2) Seeds of plant species selected from blackgrass (Alopecurus myosuroides), ryegrass, Italian (Italian ryegrass, Lolium multiflorum), wheat (winter wheat, Triticum aestivum), galium (catchweed bedstraw, Galium aparine), corn (Zea mays), crabgrass, large (large crabgrass, Digitaria sanguinalis), foxtail, giant, (giant foxtail, Setaria faberii), johnsongrass (Sorghum halepense), lambsquarters (Chenopodium album), morningglory (Ipomoea coccinea), nutsedge, yellow (yellow nutsedge, Cyperus esculentus), pigweed (Amaranthus retroflexus), ragweed (common ragweed, Ambrosia elatior), soybean (Glycine max), barnyardgrass (Echinochloa crus-galli), oilseed rape (Brassica napus), waterhemp (common waterhemp, Amaranthus rudis), and velvetleaf (Abutilon theophrasti) were planted into a blend of loam soil and sand and treated preemergence with test chemicals formulated in a non-phytotoxic solvent mixture which included a surfactant. At the same time, plants selected from these crop and weed species and also chickweed (common chickweed, Stellaria media), oat, wild (wild oat, Avena fatua), and kochia (Kochia scoparia), were planted in pots containing Sunshine Redi-Earth® planting medium comprising spaghnum peat moss, vermiculite, starter nutrients and dolomitic limestone and treated with postemergence applications of test chemicals formulated in the same manner. Plants ranged in height from 2 to 18 cm (1- to 4-leaf stage) for postemergence treatments. […] A dash (-) response means no test result.

bluegrass = experiment: Test D preemergence; assay type: in vivo, Poa annua; details: for Plant response rating: Bluegrass: scale 0 to 100; for Plant response rating (0 to 100), Bluegrass: 16 g ai/ha, 0 is no effect, 100 is complete control
Source text: as §1

kochia = experiment: Test D postemergence; assay type: in vivo, Kochia scoparia; details: scale 0 to 100
Source text: as §1

foxtail, green = experiment: Test D preemergence; assay type: in vivo, Setaria viridis; details: for Plant response rating: Foxtail, Green: scale 0 to 100; for Plant response rating (0 to 100), Foxtail, Green: 16 g ai/ha, 0 is no effect, 100 is complete control
Source text: as §1

barnyardgrass = experiment: Test C preemergence; assay type: in vivo, Echinochloa crus-galli; details: for Plant response rating (scale of 0 to 100 where 0 is no effect and 100 is complete control): Barnyardgrass, preemergence; for Barnyardgrass plant response rating (0 to 100): Preemergence, visual rating after 13 to 15 d
Source text: as §2

ryegrass, Italian = experiment: Test A postemergence; assay type: in vivo, Lolium multiflorum; details: 0 to 100 scale (0 no effect, 100 complete control), approx. 10 d
Outline: (§3)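 Weed and crop species in loam–sand blend sprayed preemergence on soil or postemergence at 2–10 cm, one- to two-leaf stage, with chemicals in surfactant-containing solvent. Injury rated visually after ~10 d in greenhouse versus untreated controls on a 0–100 scale (100 = complete control).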

galium = experiment: Test A postemergence; assay type: in vivo, Galium aparine; details: 0 to 100 scale (0 no effect, 100 complete control), approx. 10 d
Outline: as §3

Compound	Plant response rating: Barley, Winter (barley, winter; 31 g ai/ha)	Plant response rating: Barley, Winter (barley, winter; 62 g ai/ha)	Plant response rating: Barley, Winter (barley, winter; 125 g ai/ha)	Plant response rating: Barley, Spring (barley, spring; 31 g ai/ha)	Plant response rating: Barley, Spring (barley, spring; 62 g ai/ha)	Plant response rating: Barley, Spring (barley, spring; 125 g ai/ha)	Wheat plant response rating (0 to 100) (wheat (winter wheat); 31 g ai/ha)	Wheat plant response rating (0 to 100) (wheat (winter wheat); 62 g ai/ha)	Plant response rating (scale of 0 to 100 where 0 is no effect and 100 is complete control) (wheat (winter wheat))	Plant response rating: Bluegrass (bluegrass; 31 g ai/ha)	Plant response rating: Bluegrass (bluegrass; 62 g ai/ha)	Plant response rating: Bluegrass (bluegrass; 125 g ai/ha)	Plant response rating: Kochia (kochia; 31 g ai/ha)	Plant response rating: Kochia (kochia; 62 g ai/ha)	Plant response rating: Kochia (kochia; 125 g ai/ha)	Plant response rating: Foxtail, Green (foxtail, green; 62 g ai/ha)	Plant response rating: Foxtail, Green (foxtail, green; 125 g ai/ha)	Plant response rating (scale of 0 to 100 where 0 is no effect and 100 is complete control) (barnyardgrass; 125 g ai/ha)	Plant response rating (scale of 0 to 100 where 0 is no effect and 100 is complete control) (barnyardgrass; 250 g ai/ha)	Barnyardgrass plant response rating (0 to 100) (barnyardgrass; 31 g ai/ha)	further results
CCOc1nc(-c2ccc(F)cc2)nn1Cc1ccnc(C(F)(F)F)c1 [Compound 8, 4-[[5-ethoxy-3-(4-fluorophenyl)-1H-1,2,4-triazol-1-yl]methyl]-2-(trifluoromethyl)pyridine]	20	30	35	25	30	35	35	45	80	70	70	100	75	80	85	100	100	100	100	98	Plant response rating: Barley, Winter (barley, winter; 250 g ai/ha): 35; Plant response rating: Barley, Spring (barley, spring; 250 g ai/ha): 35; Plant response rating: Bluegrass (bluegrass; 250 g ai/ha): 100; Plant response rating: Kochia (kochia; 250 g ai/ha): 80; Plant response rating: Foxtail, Green (foxtail, green; 250 g ai/ha): 100; Barnyardgrass plant response rating (0 to 100) (barnyardgrass; 62 g ai/ha): 100
FC(F)(F)COc1nc(-c2ccccc2)nn1Cc1ccnc(C(F)(F)F)c1 [Compound 24]	15	25	25	25	30	35	0	0	5	75	80	98	90	90	90	98	100	80	85	10	Plant response rating: Barley, Winter (barley, winter; 16 g ai/ha): 15; Plant response rating: Barley, Spring (barley, spring; 16 g ai/ha): 20; Plant response rating (0 to 100), Bluegrass (bluegrass): 20; Plant response rating, Ryegrass, Italian (ryegrass, Italian; 125 g ai/ha): 30; Plant response rating, Ryegrass, Italian (ryegrass, Italian; 500 g ai/ha): 60; Plant response rating: Kochia (kochia; 16 g ai/ha): 85; Plant response rating, Galium (galium; 125 g ai/ha): 70; Plant response rating, Galium (galium; 500 g ai/ha): 90; Plant response rating (0 to 100), Foxtail, Green (foxtail, green): 75; Barnyardgrass plant response rating (0 to 100) (barnyardgrass; 62 g ai/ha): 45
CCOc1nc(-c2ccccc2)nn1Cc1ccnc(C(F)(F)F)c1 [Compound 27]	25	30	35	25	35	35	20	25	60	55	85	100	95	95	100	100	100	100	100	70	Plant response rating: Barley, Winter (barley, winter; 16 g ai/ha): 15; Plant response rating: Barley, Spring (barley, spring; 16 g ai/ha): 25; Plant response rating (0 to 100), Bluegrass (bluegrass): 20; Plant response rating, Ryegrass, Italian (ryegrass, Italian; 125 g ai/ha): 50; Plant response rating, Ryegrass, Italian (ryegrass, Italian; 500 g ai/ha): 90; Plant response rating: Kochia (kochia; 16 g ai/ha): 85; Plant response rating, Galium (galium; 125 g ai/ha): 80; Plant response rating, Galium (galium; 500 g ai/ha): 90; Plant response rating (0 to 100), Foxtail, Green (foxtail, green): 95; Barnyardgrass plant response rating (0 to 100) (barnyardgrass; 62 g ai/ha): 90
Fc1ccc(-c2nc(OCC(F)(F)F)n(Cc3ccnc(C(F)(F)F)c3)n2)cc1 [Compound 30]	25	30	40	40	35	45	0	0	35	75	100	100	90	90	95	100	100	85	98	40	Plant response rating: Barley, Winter (barley, winter; 16 g ai/ha): 20; Plant response rating: Barley, Spring (barley, spring; 16 g ai/ha): 30; Plant response rating (0 to 100), Bluegrass (bluegrass): 75; Plant response rating, Ryegrass, Italian (ryegrass, Italian; 125 g ai/ha): 50; Plant response rating, Ryegrass, Italian (ryegrass, Italian; 500 g ai/ha): 80; Plant response rating: Kochia (kochia; 16 g ai/ha): 85; Plant response rating, Galium (galium; 125 g ai/ha): 60; Plant response rating, Galium (galium; 500 g ai/ha): 90; Plant response rating (0 to 100), Foxtail, Green (foxtail, green): 85; Barnyardgrass plant response rating (0 to 100) (barnyardgrass; 62 g ai/ha): 85
